Consider 1 molecule from BindingDB's records for doi:10.1021/jm000275p (Merck Research Laboratories, 2001).

Assay [1] has as its target Gonadotropin-releasing hormone receptor (Canis familiaris). Nature of the assay: In vitro inhibition of binding to gonadotropin-releasing hormone receptor in dog.
Assay [2] concerns the target Gonadotropin-releasing hormone receptor (Macaca mulatta). As to the kind of experiment: In vitro inhibition of gonadotropin-releasing hormone receptor in rhesus monkey.
The target is the same in assay [3]. As to the kind of experiment: Functional antagonism at the rhesus monkey gonadotropin-releasing hormone receptor.
Assay [4] addresses Gonadotropin-releasing hormone receptor (Canis familiaris). As to the kind of experiment: Functional antagonism at gonadotropin-releasing hormone receptor in dog (PI turnover).

One may read the IC50 as the concentration at which inhibition is half-maximal. As to `Cc1cc(-c2c(OCC[C@@H]3CCN3)c3cc(C(=O)Nc4ccncn4)c(Cl)cc3[nH]c2=O)cc(C)c1C` [4-(2-Azetidin-2-yl-ethoxy)-7-chloro-2-oxo-3-(3,4,5-trimethyl-phenyl)-1,2-dihydro-quinoline-6-carboxylic acid pyrimidin-4-ylamide], the IC50 turned out to be 60 nM in assay [1], 0.5 nM in assay [2], 7 nM in assay [3] and 350 nM in assay [4].
